Assay results: PubChem BioAssay AID330 (DTP/NCI, 2004)
Several values for one entry are separate records, joined by “and”; a condition that tells them apart may be missing. Equal entries are not always repeated. Inconclusive results and toxic doses are left out. Rule for the calls: active = survival T/C of 150% or more; inactive = T/C below 125% in these data.

Test system: P388 leukemia ip, CD2F1 mice, survival T/C
Assay: NCI In Vivo Anticancer Drug Screen. Data for tumor model P388 Leukemia (intraperitoneal) in CD2F1 (CDF1) mice
Details: endpoint: median survival time, higher = longer survival
Outline: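 Mice carrying the transplanted tumor received test compound or vehicle. Survival was recorded in each group, and the value is the treated-group measurement divided by that of the vehicle-treated control group.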

[1] = dose: 50.0 mg/kg/injection, schedule: Q01DX009 (ip), vehicle: Klucel (hydroxypropylcellulose) (HPC)
[2] = dose: 100.0 mg/kg/injection, schedule: Q01DX009 (ip), vehicle: Klucel (hydroxypropylcellulose) (HPC)
[3] = dose: 200.0 mg/kg/injection, schedule: Q01DX009 (ip), vehicle: Klucel (hydroxypropylcellulose) (HPC)
[4] = dose: 60.0 mg/kg/injection, schedule: Q01DX005 (ip), vehicle: saline with Tween-80
[5] = dose: 120.0 mg/kg/injection, schedule: Q01DX005 (ip), vehicle: saline with Tween-80
[6] = dose: 240.0 mg/kg/injection, schedule: Q01DX005 (ip), vehicle: saline with Tween-80
[7] = dose: 100.0 mg/kg/injection, schedule: Q01DX001 (ip), vehicle: Klucel (hydroxypropylcellulose) (HPC)
[8] = dose: 200.0 mg/kg/injection, schedule: Q01DX001 (ip), vehicle: Klucel (hydroxypropylcellulose) (HPC)
[9] = dose: 400.0 mg/kg/injection, schedule: Q01DX001 (ip), vehicle: Klucel (hydroxypropylcellulose) (HPC)
[10] = dose: 50.0 mg/kg/injection, schedule: Q01DX009 (ip), vehicle: saline with Tween-80
[11] = dose: 100.0 mg/kg/injection, schedule: Q01DX009 (ip), vehicle: saline with Tween-80
[12] = dose: 200.0 mg/kg/injection, schedule: Q01DX009 (ip), vehicle: saline with Tween-80
[13] = dose: 50.0 mg/kg/injection, schedule: Q01DX009 (ip), vehicle: saline
[14] = dose: 12.5 mg/kg/injection, schedule: Q01DX009 (ip), vehicle: Klucel (hydroxypropylcellulose) (HPC)
[15] = dose: 25.0 mg/kg/injection, schedule: Q01DX009 (ip), vehicle: Klucel (hydroxypropylcellulose) (HPC)
[16] = dose: 50.0 mg/kg/injection, schedule: Q01DX005 (ip), vehicle: Klucel (hydroxypropylcellulose) (HPC)
[17] = dose: 100.0 mg/kg/injection, schedule: Q01DX005 (ip), vehicle: Klucel (hydroxypropylcellulose) (HPC)
[18] = dose: 50.0 mg/kg/injection, schedule: Q01DX005 (ip), vehicle: saline with Tween-80
[19] = dose: 100.0 mg/kg/injection, schedule: Q01DX005 (ip), vehicle: saline with Tween-80
[20] = dose: 200.0 mg/kg/injection, schedule: Q01DX005 (ip), vehicle: saline with Tween-80
[21] = dose: 12.5 mg/kg/injection, schedule: Q01DX009 (ip), vehicle: saline
[22] = dose: 25.0 mg/kg/injection, schedule: Q01DX009 (ip), vehicle: saline
[23] = dose: 100.0 mg/kg/injection, schedule: Q01DX009 (ip), vehicle: saline

Measured: T/C

Nc1cc(=O)cc2nn[nH]n12
inactive: [1] 102 % of control | [2] 108 % of control | [3] 101 % of control

COc1cccc(C2c3cc4c(cc3OC(C)(N3CCCC3)C2C)OCO4)c1O (stereo not given)
inactive: [4] 99 % of control | [5] 102 % of control | [6] 89 % of control

NS(=O)(=O)c1ccc(N=CC2C(=O)N(c3ccccc3)N(c3ccccc3)C2=O)cc1
inactive: [7] 87 % of control | [8] 89 % of control | [9] 92 % of control

CCc1cccc(C)c1NC(=O)C(=O)CC(=O)c1ccc(Cl)cc1Cl
inactive: [4] 114 % of control | [5] 116 % of control | [6] 113 % of control

Cc1[nH]c2c(N)cccc2c1C
inactive: [10] 97 % of control | [11] 90 % of control | [12] 88 % of control

COc1ccc2c(C)cc(NN)nc2c1
inactive: dose: 6.25 mg/kg/injection, schedule: Q01DX005 (ip), vehicle: Klucel (hydroxypropylcellulose) (HPC) 104 % of control | dose: 12.5 mg/kg/injection, schedule: Q01DX005 (ip), vehicle: Klucel (hydroxypropylcellulose) (HPC) 103 % of control

CCN(CC)Cc1cc(Nc2c3ccccc3nc3cc(Cl)ccc23)ccc1O
inactive: dose: 33.0 mg/kg/injection, schedule: Q01DX009 (ip), vehicle: saline 100 % of control | [13] 109 % of control | dose: 75.0 mg/kg/injection, schedule: Q01DX009 (ip), vehicle: saline 122 % of control

Nc1nc(CCl)nc(Nc2ccccc2)n1
inactive: [14] 101 % of control | [15] 101 % of control | [1] 101 % of control | [2] 99 % of control

CC(C)COC1CC(C)(C)c2c(-c3ccccc3)nn(-c3ccccc3)c2O1 (stereo not given)
inactive: dose: 12.5 mg/kg/injection, schedule: Q01DX009 (ip), vehicle: saline with Tween-80 93 % of control | dose: 25.0 mg/kg/injection, schedule: Q01DX009 (ip), vehicle: saline with Tween-80 93 % of control | [10] 88 % of control and 93 % of control

O=[N+]([O-])c1ccc(N/N=C/c2ccc(Cl)cc2)nc1
inactive: dose: 6.25 mg/kg/injection, schedule: Q01DX009 (ip), vehicle: Klucel (hydroxypropylcellulose) (HPC) 87 % of control | [14] 89 % of control | [15] 91 % of control | [1] 91 % of control | [2] 98 % of control | [3] 105 % of control and 89 % of control | [12] 91 % of control and 93 % of control | dose: 400.0 mg/kg/injection, schedule: Q01DX009 (ip), vehicle: saline with Tween-80 112 % of control

O=C(Nc1ccc(Cl)cc1)Sc1nnc2c(n1)[nH]c1ccccc12
inactive: [16] 103 % of control | [17] 111 % of control | dose: 200.0 mg/kg/injection, schedule: Q01DX005 (ip), vehicle: Klucel (hydroxypropylcellulose) (HPC) 103 % of control

CC(NC(=O)C(C)NC(=O)OC(C)(C)C)C(=O)O (stereo not given)
inactive: [18] 100 % of control | [19] 101 % of control | [20] 101 % of control

CCSC(C#N)C(C)=O (stereo not given)
inactive: [21] 106 % of control | [22] 97 % of control | [10] 100 % of control | [13] 100 % of control

CCOc1cc(=O)cc2n(-c3cc(OCC)c(OC)c(OCC)c3)c3ccccc3nc1-2
inactive: dose: 50.0 mg/kg/injection, schedule: Q01DX009 (ip), vehicle: suspension in saline 101 % of control | dose: 100.0 mg/kg/injection, schedule: Q01DX009 (ip), vehicle: suspension in saline 101 % of control | dose: 200.0 mg/kg/injection, schedule: Q01DX009 (ip), vehicle: suspension in saline 90 % of control

O=C1Nc2ccccc2/C1=N/N(c1ccccc1)c1ccccc1
inactive: [18] 95 % of control | [19] 101 % of control | [20] 99 % of control

CC(C)(C)N1COC2CCCCC21 (stereo not given)
inactive: dose: 15.0 mg/kg/injection, schedule: Q01DX005 (ip), vehicle: Klucel (hydroxypropylcellulose) (HPC) 106 % of control | dose: 30.0 mg/kg/injection, schedule: Q01DX005 (ip), vehicle: Klucel (hydroxypropylcellulose) (HPC) 102 % of control | dose: 60.0 mg/kg/injection, schedule: Q01DX005 (ip), vehicle: Klucel (hydroxypropylcellulose) (HPC) 106 % of control and 117 % of control | dose: 240.0 mg/kg/injection, schedule: Q01DX005 (ip), vehicle: Klucel (hydroxypropylcellulose) (HPC) 106 % of control

N/C(=N/S(=O)(=O)c1cccc([N+](=O)[O-])c1)NS(=O)(=O)c1ccc([N+](=O)[O-])cc1
inactive: dose: 7.5 mg/kg/injection, schedule: Q01DX009 (ip), vehicle: saline with Tween-80 101 % of control | dose: 15.0 mg/kg/injection, schedule: Q01DX009 (ip), vehicle: saline with Tween-80 113 % of control | dose: 30.0 mg/kg/injection, schedule: Q01DX009 (ip), vehicle: saline with Tween-80 110 % of control

CCN(CC)Cc1cc(Nc2c3ccc([N+](=O)[O-])cc3nc3ccc(OC)cc23)ccc1O
inactive: dose: 50.0 mg/kg/injection, schedule: Q01DX005 (ip), vehicle: saline 99 % of control | dose: 100.0 mg/kg/injection, schedule: Q01DX005 (ip), vehicle: saline 103 % of control | dose: 200.0 mg/kg/injection, schedule: Q01DX005 (ip), vehicle: saline 101 % of control

COc1ccc2c3csc4ccccc4c-3nc2c1
inactive: dose: 16.0 mg/kg/injection, schedule: Q01DX009 (ip), vehicle: saline 107 % of control | [22] 115 % of control | dose: 35.0 mg/kg/injection, schedule: Q01DX009 (ip), vehicle: saline 95 % of control

Cc1ccc(S(=O)(=O)/C=C/C(=O)c2ccco2)cc1
inactive: dose: 100.0 mg/kg/injection, schedule: Q04DX002 (ip), vehicle: saline 108 % of control | dose: 200.0 mg/kg/injection, schedule: Q04DX002 (ip), vehicle: saline 112 % of control | dose: 400.0 mg/kg/injection, schedule: Q04DX002 (ip), vehicle: saline 100 % of control

O=C(CN1CCN(c2ccccc2)CC1)n1nnc2ccccc21
inactive: [4] 93 % of control | [5] 87 % of control

CC(=O)c1ccc(C(C)=O)cc1
inactive: [13] 101 % of control | [23] 95 % of control | dose: 200.0 mg/kg/injection, schedule: Q01DX009 (ip), vehicle: saline 109 % of control

O=Nc1sc(=S)n(N2CCCCC2)c1O
inactive: [16] 99 % of control | [17] 96 % of control

CC1=C(C)C(=O)O[C@@H]([C@](C)(O)[C@]2(O)CC[C@@]3(O)[C@@H]4C[C@H](O)[C@]5(O)[C@@H](O)C=CC(=O)[C@]5(C)[C@H]4CC[C@]23C)C1
inactive: dose: 4.0 mg/kg/injection, schedule: Q01DX005 (ip), vehicle: distilled water + Tween-80 100 % of control | dose: 8.0 mg/kg/injection, schedule: Q01DX005 (ip), vehicle: distilled water + Tween-80 102 % of control | dose: 16.0 mg/kg/injection, schedule: Q01DX005 (ip), vehicle: distilled water + Tween-80 107 % of control | dose: 32.0 mg/kg/injection, schedule: Q01DX005 (ip), vehicle: distilled water + Tween-80 106 % of control and 112 % of control | dose: 64.0 mg/kg/injection, schedule: Q01DX005 (ip), vehicle: distilled water + Tween-80 99 % of control and 107 % of control | dose: 128.0 mg/kg/injection, schedule: Q01DX005 (ip), vehicle: distilled water + Tween-80 99 % of control

O=C(O)Cc1cn2cc(Cl)cc(Cl)c2n1
inactive: [7] 114 % of control | [8] 101 % of control | [9] 98 % of control

COc1cc(C)c2sc3ccccc3c(=O)c2c1NCCN(C)C
inactive: [21] 100 % of control and 104 % of control and 108 % of control | [22] 99 % of control and 108 % of control and 110 % of control | [10] 96 % of control | [23] 111 % of control and 112 % of control

O=[N+]([O-])c1ccc(CCCl)cc1
inactive: [10] 99 % of control | [11] 88 % of control | [12] 90 % of control
